Values joined by “and” are separate entries in the source; they are usually repeats but may differ in a detail not shown here. Equal entries are not always repeated.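 A five-concentration, 48-hour dose response in 96-well plates underlies each endpoint, interpolated linearly between surrounding concentrations. GI50: concentration for 50% inhibition of growth. The concentration for full growth arrest is given as TGI.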 Active and inactive are the calls of the source. No stated cut-off is given here; in the data, active means GI50 below about 0.43 µM; inactive means the rest. Where a SMILES comes first, the peptide text is derived from it. Side-chain parts run from the residue outwards. The star is where a group is joined. Cbz = O=C(OCc1ccccc1)*; Boc = CC(C)(C)OC(=O)*
Assays:
Experiment in all cases: growth of human tumour cells (NCI), 48 h
ACHN renal = test system: ACHN renal
MDA-N = test system: MDA-N
K-562 leukemia = test system: K-562 leukemia
UACC-62 melanoma = test system: UACC-62 melanoma
U251 CNS = test system: U251 CNS
SF-268 CNS = test system: SF-268 CNS
NCI-H460 lung = test system: NCI-H460 lung
SR leukemia = test system: SR leukemia
OVCAR-4 ovarian = test system: OVCAR-4 ovarian
HCT-116 colon = test system: HCT-116 colon
NCI-H226 lung = test system: NCI-H226 lung

Row | SMILES | TGI (ACHN renal) [µM] | TGI (MDA-N) | TGI (K-562 leukemia) [µM] | TGI (UACC-62 melanoma) | TGI (U251 CNS) [µM] | TGI (SF-268 CNS) | TGI (NCI-H460 lung) [µM] | TGI (SR leukemia) [µM] | TGI (OVCAR-4 ovarian) [µM] | TGI (HCT-116 colon) [µM] | TGI (NCI-H226 lung) | GI50 (OVCAR-4 ovarian) [µM] | outcome (NCI-H226 lung) | outcome (ACHN renal) | outcome (UACC-62 melanoma) | outcome (U251 CNS) | outcome (SF-268 CNS) | outcome (OVCAR-4 ovarian)
1 | CC(C)(C)OC(=O)n1c(Cl)c(C=O)c2ccccc21 | 52.9 | > 100 µM | > 100 | 43.3 µM | > 100 | 36.2 µM | 46.1 | > 100 | > 100 |  |  |  |  |  |  |  |  | 
2 | OC1(c2ccc(Cl)cc2)c2c(c3ccccc3c3ccccc23)C2=NCCN21 (centres undefined) | 28.8 | 51.1 µM | > 100 | 32 µM | 30.8 | 24.9 µM | 41.4 | 30.5 | 11 | 25.7 |  |  |  |  |  |  |  | 
3 | Cn1c(COC(=O)NC2CCCCC2)c(COC(=O)NC2CCCCC2)c2ccc3cc(C=O)ccc3c21 | > 100 | > 100 µM | > 100 | > 100 µM | 87.5 | > 100 µM |  |  |  | > 100 | > 100 µM |  |  |  |  |  |  | 
4 | CN(C)CC1CCCc2ccccc2C1=O (centres undefined) | 3.3 | 3.07 µM |  | 6.18 µM | 3.12 | 5.55 µM | 39.9 | > 100 | 2.01 | 3.26 | 48.8 µM |  |  |  |  |  |  | 
5 | O=S1(=O)OCCCOS(=O)(=O)C1(Br)Br | > 100 | > 100 µM |  | > 100 µM | > 100 | > 100 µM |  | > 100 | > 100 | > 100 | > 100 µM |  |  |  |  |  |  | 
6 | O=C(CC(c1ccccc1)C(C(=O)c1ccncc1)C(CC(=O)c1ccncc1)c1ccccc1)c1ccncc1 (centres undefined) | > 100 |  |  | > 100 µM | > 100 | > 100 µM | > 100 | > 100 |  | > 100 | > 100 µM |  |  |  |  |  |  | 
7 | O=C(CSCC(=O)N/N=C\c1ccccc1F)N/N=C\c1ccccc1F | > 100 |  |  | > 100 µM | > 100 | > 100 µM | > 100 |  | > 100 | > 100 | > 100 µM |  |  |  |  |  |  | 
8 | Cc1c2oc3c(C)cc(F)c(C(=O)NC4C(=O)NC(C(C)C)C(=O)N5CCCC5C(=O)N(C)CC(=O)N(C)C(C(C)C)C(=O)OC4C)c3nc-2c(C(=O)NC2C(=O)NC(C(C)C)C(=O)N3CCCC3C(=O)N(C)CC(=O)N(C)C(C(C)C)C(=O)OC2C)c(N)c1=O (centres undefined) | 32.5 | 1.32 µM and 1.12 µM |  | 0.492 µM and 0.154 µM | 25.9 | 4.21 µM and 15.3 µM | 13.5 |  | > 100 |  | 0.625 µM and 0.346 µM | 0.559 |  |  |  |  |  | 
9 | O=C(/C=C/c1ccccc1)Oc1cccc(Br)c1 | > 100 | > 100 µM |  | > 100 µM | > 100 | > 100 µM | > 100 | 59.3 | > 100 | > 100 | > 100 µM |  |  |  |  |  |  | 
10 | COc1cccc([C@@H]2CC(=O)c3cc4c(cc3N2)OCO4)c1 | > 100 | > 100 µM | > 100 | > 100 µM | > 100 | > 100 µM |  |  | > 100 | > 100 | > 100 µM |  |  |  |  |  |  | 
11 | Cc1ccc2c(=O)cc(Cc3csc4ccccc34)[nH]c2n1 |  | > 100 µM | > 100 | > 100 µM | > 100 | > 100 µM |  |  | 91.4 | > 100 | 85.8 µM |  |  |  |  |  |  | 
12 | CO[C@]12CC(=O)C3(C(C[C@H]4CC5CC[C@H]6C[C@@H](OC(C)=O)CC[C@]6(OC(C)=O)C5C[C@@]43C)C1)C1C[C@H]3[C@@H]4CC[C@H]5C[C@@H](OC(C)=O)CC[C@]5(OC(C)=O)[C@H]4CC[C@]3(C)C12 (some centres undefined) | > 100 | > 100 µM | > 100 | > 100 µM | > 100 | > 100 µM | > 100 | > 100 | > 100 | > 100 |  |  |  |  |  |  |  | 
13 | CC(C)(C)OC(=O)NC(CCCCNC(=O)CNC(=O)OCc1ccccc1)C(=O)NC(CCCCNC(=O)CNC(=O)OCc1ccccc1)C(=O)NC(CCCCNC(=O)CNC(=O)OCc1ccccc1)C(=O)NC(CCCCNC(=O)CNC(=O)OCc1ccccc1)C(=O)O (centres undefined) (Boc-K([Gly-Cbz])K([Gly-Cbz])K([Gly-Cbz])K([Gly-Cbz])-OH; configuration not given here) | > 100 | > 100 µM | > 100 | > 100 µM | > 100 | > 100 µM | > 100 | > 100 |  | > 100 | > 100 µM |  |  |  |  |  |  | 
14 | NCCS(=O)(=O)O | > 100 | > 100 µM | > 100 |  | > 100 | > 100 µM | > 100 | > 100 |  | > 100 | > 100 µM |  |  |  |  |  |  | 
15 | O=P(O)(O)CN1CCNCCN(CP(=O)(O)O)CCN(CP(=O)(O)O)CCNCC1 |  |  |  |  |  |  |  |  |  |  |  |  | inactive | inactive | inactive | inactive | inactive | inactive
16 | C1=CN2C[n+]3ccc4ccccc4c3N=C2c2ccccc21 | 70.5 | 7.59 µM | 12.5 | 4.32 µM | 10.2 | 8.35 µM | 16.4 | 4.66 |  | > 100 |  |  |  |  |  |  |  | 
17 | O=c1[nH]c(=O)n(COCc2ccccc2)c2ccccc12 | > 100 | > 100 µM | > 100 | > 100 µM | > 100 |  | > 100 | > 100 | > 100 | > 100 | > 100 µM |  |  |  |  |  |  | 
18 | O=C1CCC2(c3ccc(Cl)cc3)Nc3ncncc3N12 (centres undefined) | > 10 | > 10 µM | > 10 | > 10 µM | > 10 | > 10 µM | > 10 |  | > 10 |  | > 10 µM |  |  |  |  |  |  | 
19 | COc1ccc(C2=NNC(c3cc4cc(Br)ccc4nc3Cl)C2)cc1 (centres undefined) | > 25 | 17.8 µM | > 25 | > 25 µM |  |  | > 25 | > 25 | > 25 | > 25 | 11.8 µM |  |  |  |  |  |  | 
20 | O=C(NNS(=O)(=O)c1ccccc1)c1csc(NC(=S)NC2CCCCC2)n1 | 93.6 | 40.2 µM | > 100 | 61.3 µM | > 100 | 62.8 µM |  | > 100 | > 100 | 36 | > 100 µM |  |  |  |  |  |  | 
21 | COc1cc(S(=O)(=O)Nc2ccc(-c3csc(N4C(=O)C(C)SC4c4ccccc4)n3)cc2)ccc1Cl (centres undefined) | > 100 | > 100 µM | > 100 | 52.8 µM |  | > 100 µM |  | > 100 | > 100 | > 100 | > 100 µM |  |  |  |  |  |  | 
